Patent publication US20150141383A1, “Darunavir Polymorph and Process for Preparation Thereof” (Cipla Limited, priority 2010, published 2015)

Test: Hygroscopicity study as per British Pharmacopoeia method
Format: physicochemical
Experimental: Darunavir Hydrate From C was subjected to hygroscopicity study and the test was performed as per the method given in British Pharmacopoeia.
A weight change of 0.0003 g was observed which correspond to 0.06% weight change. As per the test a sample is of non-hygroscopic nature if the weight change observed is less than 0.2%.

CC(C)CN(C[C@@H](O)[C@H](Cc1ccccc1)NC(=O)O[C@H]1CO[C@H]2OCC[C@H]21)S(=O)(=O)c1ccc(N)cc1 [darunavir hydrate Form C, (3R,3aS,6aR)-hexahydrofuro[2,3-b]furan-3-yl(1S,2R)-3-[[(4-aminophenyl)sulfonyl](isobutyl)amino]-1-benzyl-2-hydroxypropylcarbamate]
hygroscopic nature (non-hygroscopic if weight change less than 0.2%) (25° C. and 85% RH, 24 hours): non-hygroscopic
weight change (57.6456 g exposed at 25° C. and 85% RH for 24 hours): 0.0003 g
weight change (exposed at 25° C. and 85% RH for 24 hours): 0.06%
